From patent publication US20250136579A1, “SALTS AND FREE BASES OF BIFUNCTIONAL COMPOUND AND POLYMORPH FORMS THEREOF” (NURIX THERAPEUTICS, INC., priority 2023, published 2025)
Where two headings read alike, the source gives them in different places.

Legend:
Format in all cases: physicochemical
[1] = kinetic solubility at pH 7.4; settings: pH 7.4, aqueous buffer, kinetic from dmso stock
From the text: (§1) The free base compound of Formula (I) was used as a starting material. The compound of Formula (I) (MW 806.973 g/mol) is a chimeric targeting molecule that has two ligands connected by a linker.

[2] = dynamic vapor sorption (DVS) analysis, TA Instruments Q5000, 5 to 95% RH
Protocol: For Fumarate Salt Form A, Dynamic vapor sorption (DVS) analysis was carried out using a TA Instruments Q5000 Dynamic Vapor Sorption analyser. The instrument was calibrated with standard weights and a sodium bromide standard for humidity. Approximately 10-25 mg of sample was loaded into a metal coated quartz pan for analysis. The sample was analysed at 25° C. with a maximum equilibration time of one hour in 10% relative humidity (RH) steps from 5 to 95% RH (adsorption cycle) and from 95 to 5% RH (desorption cycle). The movement from one step to the next occurred either after satisfying the equilibrium criterion of 0.01% weight change, or when the equilibrium criterion was not met after one hour. The percent weight change values were then calculated.

[3] = estimated solubility by adding test solvent in aliquots to weighed solid, visual inspection; settings: thermodynamic from solid, read-out: Solubility
Protocol: Solubilities of the compound of Formula (I), free base, in a few solvents were estimated. The experiments were carried out by adding the test solvent in aliquots to weighed portions of solid. Whether dissolution had occurred was judged by visual inspection after addition of each solvent aliquot. Solubility numbers were calculated by dividing the weight of the sample by total amount of solvent used to dissolve the sample. The actual solubilities may be greater than the numbers calculated because of the use of solvent aliquots that were too large or because of slow dissolution rates. […] The solubility number is expressed as “greater than or equal to” if dissolution occurred on addition of the first solvent aliquot.
Solubilities of Fumarate Salt Form A are shown in Tables 8 and 9, in selected solvents and aqueous binary mixtures.
Solubilities of the compound of Formula (I), Fumarate Salt Form A, are shown in Tables 15 and 16, in selected solvents and aqueous binary mixtures.

[4] = pKa (base) of the free base compound of Formula (I)
From the text: as §1

CN1CCN([C@@H]2CCCN(c3cnc(C(N)=O)c(Nc4ccc(C5CCN(CC6CCN(c7ccc(C(=O)N[C@H]8CCC(=O)NC8=O)nc7)CC6)CC5)cc4)n3)C2)C1=O [free base compound of Formula (I)]
solubility kinetic [1]: 10 µM | DVS: weight gain up to 95% RH ([2]; 25° C.): approximately 7% | DVS: hygroscopicity ([2]; 25° C., 5 to 95% RH): moderately hygroscopic | Post-DVS XRPD ([2]; material after sorption/desorption cycle): unchanged | solubility ([3]; aqueous with cosolvent or surfactant or cyclodextrin, 1,4-dioxane/H2O (60/40), aw 1.0, at 60° C.): 2000 µg/mL | solubility ([3]; aqueous with cosolvent or surfactant or cyclodextrin, 1-pentanol/H2O (saturated) (80:20 - 2 phase system), at 60° C.): < 3000 µg/mL | solubility ([3]; aqueous with cosolvent or surfactant or cyclodextrin, 2-propanol/H2O (80/20), aw 0.9, at 60° C.): < 2000 µg/mL | solubility ([3]; aqueous with cosolvent or surfactant or cyclodextrin, acetone/H2O (70/30), aw 0.85, at 60° C.): < 2000 µg/mL | solubility ([3]; aqueous with cosolvent or surfactant or cyclodextrin, acetonitrile/H2O (45/55), aw 0.9, at 60° C.): < 2000 µg/mL | solubility ([3]; aqueous with cosolvent or surfactant or cyclodextrin, ethanol/H2O (70/30), aw 0.8, at 60° C.): < 2000 µg/mL | solubility ([3]; aqueous with cosolvent or surfactant or cyclodextrin, methanol/H2O (50/50), aw 0.75, at 60° C.): < 2000 µg/mL | solubility ([3]; aqueous with cosolvent or surfactant or cyclodextrin, tetrahydrofuran/H2O (80/20), aw 1, at RT): 5000 µg/mL | solubility ([3]; organic solvent or mixture, 1,2-dichloroethane, at 45° C.): 2000 µg/mL | solubility ([3]; organic solvent or mixture, 1,4-dioxane, solubility without temperature): 6000 µg/mL | solubility ([3]; organic solvent or mixture, 2-methyltetrahydrofuran (2-MeTHF), solubility without temperature): < 1000 µg/mL | solubility ([3]; organic solvent or mixture, 2-propanol (2-PrOH), solubility without temperature): < 1000 µg/mL | solubility ([3]; organic solvent or mixture, acetone, solubility without temperature): < 1000 µg/mL | solubility ([3]; organic solvent or mixture, acetonitrile (ACN), solubility without temperature): < 1000 µg/mL | solubility ([3]; organic solvent or mixture, anisole, at 60° C.): < 1000 µg/mL | solubility ([3]; organic solvent or mixture, cyclohexane, at 60° C.): < 2000 µg/mL | solubility ([3]; organic solvent or mixture, dichloromethane (DCM), solubility without temperature): 17000 µg/mL | solubility ([3]; organic solvent or mixture, diethyl ether (Et2O), solubility without temperature): < 1000 µg/mL | solubility ([3]; organic solvent or mixture, dimethylformamide (DMF), solubility without temperature): 21000 µg/mL | solubility ([3]; organic solvent or mixture, dimethylsulfoxide (DMSO), solubility without temperature): 9000 µg/mL | solubility ([3]; organic solvent or mixture, ethanol (EtOH), solubility without temperature): < 1000 µg/mL | solubility ([3]; organic solvent or mixture, ethyl acetate (EtOAc), solubility without temperature): < 1000 µg/mL | solubility ([3]; organic solvent or mixture, heptane, at 60° C.): < 2000 µg/mL | solubility ([3]; organic solvent or mixture, methanol (MeOH), solubility without temperature): < 1000 µg/mL | solubility ([3]; organic solvent or mixture, methyl acetate (MeOAc), at 60° C.): < 1000 µg/mL | solubility ([3]; organic solvent or mixture, methyl ethyl ketone (MEK), solubility without temperature): < 1000 µg/mL | solubility ([3]; organic solvent or mixture, methyl tert-butyl ether (MTBE), at 60° C.): < 1000 µg/mL | solubility ([3]; organic solvent or mixture, tetrahydrofuran (THF), solubility without temperature): 9000 µg/mL | solubility ([3]; organic solvent or mixture, toluene, at 60° C.): < 2000 µg/mL | solubility ([3]; water, solubility without temperature): < 1000 µg/mL | pKa [4]: ~6.5
